# Reference: US20180371076A1, “MATERNAL TH17 CELLS AND PSYCHIATRIC DISORDERS” (New York University, priority 2017, published 2018)
# Columns and labels:
# Format in all cases: in vivo, mouse
# IFN-β = IFN-β ELISA of maternal serum; details: poly(I:C) at E12.5, 3 h, vs PBS
# Experimental: Cell preparation, Flow cytometry, ELISA Embryos at each implantation site were dissected in ice-cold HBSS containing Ca2+ and Mg2+ (Gibco). Myometrium was first peeled off of the decidua and embryos were discarded. Dissected decidual and placental tissues were then minced and enzymatically dissociated in HBSS containing 0.28 Wunsch units (WU)/mL Liberase (Roche) and 30 μg/mL DNase I (Roche) for 30 min at 37° C. with intermittent mixing. Digested tissues were washed in PBS containing 5 mM EDTA and 5% fetal bovine serum and then incubated again in the same buffer for 15 min at 37° C. prior to filtration through a cell strainer. […] Intracellular cytokine staining was performed according to the manufacturer's protocol (Cytofix/Cytoperm buffer set from BD with Pacific Blue-conjugated CD4, FITC or PerCP-Cy5.5-conjugated CD8, APC4 Cy7-conjugated TCR-β, PE-Cy7-conjugated anti-IL-17a, PE-conjugated anti-IFN-γ, PECy7-conjugated anti-CD25 and PE-conjugated Foxp3 (eBioscience). LSR II (BD Biosciences) and FlowJo software (Tree Star) were used for flow cytometry and analysis. Dead cells were excluded using the Live/Dead fixable aqua dead cell stain kit (Invitrogen). For ELISA with sera and placenta/decidua extract, IL-6 (Ebioscience), IL-17a, TNF-α, IL-1β, IFN-β (Biolgened), and IL-10 (BD) were measured according to the manufacturer's protocol.
# IL-17Ra mRNA = IL-17Ra mRNA in fetal brain (real-time PCR, in situ hybridization); details: E14.5
# Experimental: In Situ Hybridization. E14.5 embryos from PBS or poly(I:C)-treated mothers were collected in ice-cold PBS and subsequently fixed in 4% paraformaldehyde for 4 h at 4° C. Isolated brains were dehydrated in 30% sucrose/PBS solution overnight, and then embedded in Tissue Tek O.C.T. compound (Sakura Finetek, Torrance, Calif.). The blocks were sectioned at 16-μm thickness using a cryostat (Leica). Fluorescent in situ hybridization was performed using a branched cDNA probe with amplification technology (ViewRNA ISH Tissue Assay kit, Panomics, Santa Clara) according to the manufacturer's protocol. […]
# Real-Time PCR Total RNA was extracted from the cerebral cortex of E14.5 fetal brain of male embryo (RNase plus mini kit, Qiagen) as well as from the decidua- and the placenta-derived mononuclear cells and reverse transcribed into cDNA using oligodT (ProtoScript first strand cDNA synthesis kit, NEB) according to the manufacturer's instructions. mRNA levels of target genes (il17ra, il17rc, il17a and il6) were quantified with a Real-Time PCR System (CFX connect Real-Time PCR, Bio-Rad) using fluorescent SYBR Green technology (Bio-Rad). […] Changes in relative gene expression normalized to gapdh or actin levels were determined using the relative threshold cycle method based on the Cont-PBS group. […]
# [1] = Properties of the litter (gender ratio, litter size, offspring weight); details: PBS vs poly(I:C), control vs anti-IL-17a treated dams
substance,measurement,setting,value
poly(I:C),serum IFN-β,IFN-β,strong induction
same,IL-17Ra mRNA in fetal brain (real-time PCR),IL-17Ra mRNA; induction of MIA,strongly augmented
same,IL-17Ra mRNA in fetal brain cortex (in situ hybridization),IL-17Ra mRNA; poly(I:C) injection of pregnant dams,strongly up-regulated
same,"gender ratios, litter sizes and weights",[1],not affected
